The values below come from US20220031652A1, “USE OF AN ORGANOMETALLIC COMPOUND AS A DNA-DEMETHYLATING AGENT” (UNIVERSITE DE LORRAINE, priority 2018, published 2022).

The experiment deals with MDA-MB231, T47D, T47D R+ doxo, U251 and U87 cells. Description: Crystal violet proliferation test at 2 μM, 48 h or 72 h. The format is cell-based.

Description: Each cell line is seeded in 96-well plates (100 μL medium/well) according to the following conditions:
After 48 h or 72 h of treatment, the medium of each well is removed then a washing is carried out with 100 μL of PBS.
The cells are then fixed with 100 μL of paraformaldehyde 4% for 20 minutes, followed by two washings with 500 μL of PBS.
The percentage of cells adhered is highlighted by a crystal violet coloration.
100 μL of crystal violet at 0.1% (1/5 dilution in H2O of the stock solution: 0.5% crystal violet 2% filtered ethanol 0.22 μM) is added in each well.
After 30 minutes of incubation at ambient temperature, the wells are rinsed 3 times with distilled water, then correctly dried by patting on a sheet of absorbent paper.
100 μL of 10% acetic acid is then added to each well.
The plate is stirred until total solubilisation of the crystal violet crystals (around 10 minutes).

On to `[Ru+2].c1ccc(-c2cc(-c3ccccn3)nc(-c3ccccn3)c2)cc1.c1ccc(-c2cc(-c3ccccn3)nc(-c3ccccn3)c2)cc1` [Ru], for which the “inhibition of the proliferation (crystal violet)” value is on record as “does not lead to any inhibition of the proliferation”.
